The compounds below were run on YAP-TEAD interaction (assay: SK-HEP-1 reporter assay (8xTEAD responsive elements driving NanoLuc luciferase)). Conditions: Homo sapiens, SK-HEP1, SK-HEP-1 reporter assay.
Format: cell-based
Outline: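 SK-HEP-1 cells stably carrying an 8×TEAD-element NanoLuc reporter were treated in duplicate with 10-point dilutions from a top final 30 μM (0.3% DMSO). After 24 h at 37 °C, luciferase activity was read by luminescence with NanoGlo lysis/substrate reagent, and IC50 values were derived.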
Work on Cn1cc2c3cc(C(=O)N4[C@H](CO)C[C@@H]5CCCC[C@@H]54)ccc3n(-c3ccc(C(F)(F)F)cc3)c2n1 (single isomer, unassigned) [Example B32] yielded an IC50 of 0.1 to 10 µM. For Cn1cc2c3cc(C(=O)N4CCCC4Cn4cncn4)ccc3n(-c3ccc(C(F)(F)F)cc3)c2n1 (stereo not shown) [Example B54, 1-[(1-{2-methyl-8-[4-(trifluoromethyl)phenyl]-2H,8H-pyrazolo[3,4-b]indole-5-carbonyl}pyrrolidin-2-yl)methyl]-1H-1,2,4-triazole], the IC50 was > 10 µM. With Cn1cc2c3cc(C(=O)N4CCn5nccc5C4CO)ccc3n(-c3ccc(C(F)(F)F)cc3)c2n1 (stereo not shown) [Example B40] the IC50 was > 10 µM. In the case of Cn1cc2c3cc(C(=O)N4CC(CO)(n5cccn5)C4)ccc3n(-c3ccc(C(F)(F)F)cc3)c2n1 [B130^], the IC50 is reported as 0.1 to 10 µM. For Cn1cc2c3cc(C(=O)NCCc4cccc(F)n4)ccc3n(-c3ccc(C(F)(F)F)cc3)c2n1 [Example B84, N-[2-(6-fluoropyridin-2-yl)ethyl]-2-methyl-8-[4-(trifluoromethyl)phenyl]-2H,8H-pyrazolo[3,4-b]indole-5-carboxamide], the IC50 was > 10 µM. Work on O=C(O)c1ccc2c(c1)c1cn(Cc3ccccc3)cc1n2-c1ccccc1 [Example 3, 2-Benzyl-4-phenyl-2H,4H-pyrrolo[3,4-b]indole-7-carboxylic acid] yielded an IC50 of 0.001 to 0.01 µM. For Cc1c[nH]c(C2(NC(=O)c3ccc4c(c3)c3cn(C)nc3n4-c3ccc(C(F)(F)F)cc3)CCC2)n1 [Example B60, 2-methyl-N-[1-(4-methyl-1H-imidazol-2-yl)cyclobutyl]-8-[4-(trifluoromethyl)phenyl]-2H,8H-pyrazolo[3,4-b]indole-5-carboxamide], the IC50 was 0.1 to 10 µM. Cc1cnn(CC(C)NC(=O)c2ccc3c(c2)c2cn(C)nc2n3-c2ccc(C(F)(F)F)cc2)c1 (stereo not shown) [Example B66, 2-methyl-N-[1-(4-methyl-1H-pyrazol-1-yl)propan-2-yl]-8-[4-(trifluoromethyl)phenyl]-2H,8H-pyrazolo[3,4-b]indole-5-carboxamide] gave an IC50 of 0.1 to 10 µM. Compound Cn1cc2c3cc(C(=O)NCc4c(C5CC5)cnn4C)ccc3n(-c3ccc(C(F)(F)F)cc3)c2n1 [B102^] has an IC50 of 0.01 to 0.1 µM. Cn1cc2c3cc(C(=O)N[C@@H]4CCO[C@H]4c4cc[nH]n4)ccc3n(-c3ccc(C(F)(F)F)cc3)c2n1 [B122^] gave an IC50 of 0.01 to 0.1 µM. For Cn1cc2c3cc(C(=O)N[C@@H]4C[C@H](O)c5ccccc54)ccc3n(-c3ccc(C(F)(F)F)cc3)c2n1 (relative stereo) [Example B1, N-[(1R,3S)-3-hydroxy-2,3-dihydro-1H-inden-1-yl]-2-methyl-8-[4-(trifluoromethyl)phenyl]-2H,8H-pyrazolo[3,4-b]indole-5-carboxamide], the IC50 was 0.1 to 10 µM. CCn1nnc(C)c1CNC(=O)c1ccc2c(c1)c1cn(C)nc1n2-c1ccc(C(F)(F)F)cc1 [Example B96, N-[(1-ethyl-4-methyl-1H-1,2,3-triazol-5-yl)methyl]-2-methyl-8-[4-(trifluoromethyl)phenyl]-2H,8H-pyrazolo[3,4-b]indole-5-carboxamide] showed an IC50 of 0.1 to 10 µM. Compound CC1CN(CCNC(=O)c2ccc3c(c2)c2cn(C)nc2n3-c2ccc(C(F)(F)F)cc2)CCO1 (stereo not shown) [Example B78, 2-methyl-N-[2-(2-methylmorpholin-4-yl)ethyl]-8-[4-(trifluoromethyl)phenyl]-2H,8H-pyrazolo[3,4-b]indole-5-carboxamide] has an IC50 of 0.1 to 10 µM. In the case of Cn1cc2c3cc(C(=O)N4CCCC4c4ncc[nH]4)ccc3n(-c3ccc(C(F)(F)F)cc3)c2n1 (stereo not shown) [Example B52, 2-(1-{2-methyl-8-[4-(trifluoromethyl)phenyl]-2H,8H-pyrazolo[3,4-b]indole-5-carbonyl}pyrrolidin-2-yl)-1H-imidazole], the IC50 is reported as > 10 µM. Work on Cn1cc2c3cc(C(=O)N4CCC[C@@H]4CCCO)ccc3n(-c3ccc(C(F)(F)F)cc3)c2n1 (single isomer, unassigned) [Example B18] yielded an IC50 of 0.1 to 10 µM. CC(CCc1ccccn1)NC(=O)c1ccc2c(c1)c1cn(C)nc1n2-c1ccc(C(F)(F)F)cc1 (stereo not shown) [Example B79, 2-methyl-N-[4-(pyridin-2-yl)butan-2-yl]-8-[4-(trifluoromethyl)phenyl]-2H,8H-pyrazolo[3,4-b]indole-5-carboxamide] showed an IC50 of 0.1 to 10 µM. CCOC1CC(N(C)C(=O)c2ccc3c(c2)c2cn(C)nc2n3-c2ccc(C(F)(F)F)cc2)C1(C)C (stereo not shown) [Example B99, N-(3-ethoxy-2,2-dimethylcyclobutyl)-N,2-dimethyl-8-[4-(trifluoromethyl)phenyl]-2H,8H-pyrazolo[3,4-b]indole-5-carboxamide] was tested, and the IC50 was > 10 µM. CCC(NC(=O)c1ccc2c(c1)c1cn(C)nc1n2-c1ccc(C(F)(F)F)cc1)c1c[nH]nn1 (stereo not shown) [Example B3, 2-methyl-N-[1-(1H-1,2,3-triazol-4-yl)propyl]-8-[4-(trifluoromethyl)phenyl]-2H,8H-pyrazolo[3,4-b]indole-5-carboxamide] gave an IC50 of 0.01 to 0.1 µM. Cn1cc2c3cc(C(=O)NC[C@@H]4C[C@H]4C4CCOCC4)ccc3n(-c3ccc(C(F)(F)F)cc3)c2n1 [B116^] was tested, and the IC50 was > 10 µM. For Cn1cc2c3cc(C(=O)N4CC(F)(F)CC4(C)CO)ccc3n(-c3ccc(C(F)(F)F)cc3)c2n1 (stereo not shown) [Example B35, (4,4-difluoro-2-methyl-1-{2-methyl-8-[4-(trifluoromethyl)phenyl]-2H,8H-pyrazolo[3,4-b]indole-5-carbonyl}pyrrolidin-2-yl)methanol], the IC50 was > 10 µM. With Cc1noc(CC2(NC(=O)c3ccc4c(c3)c3cn(C)nc3n4-c3ccc(C(F)(F)F)cc3)CC2)n1 [Example B77, 2-methyl-N-{1-[(3-methyl-1,2,4-oxadiazol-5-yl)methyl]cyclopropyl}-8-[4-(trifluoromethyl)phenyl]-2H,8H-pyrazolo[3,4-b]indole-5-carboxamide] the IC50 was > 10 µM. Cn1cc2c3cc(C(=O)NC(CF)c4cnnn4C)ccc3n(-c3ccc(C(F)(F)F)cc3)c2n1 (stereo not shown) [Example B91, N-[2-fluoro-1-(1-methyl-1H-1,2,3-triazol-5-yl)ethyl]-2-methyl-8-[4-(trifluoromethyl)phenyl]-2H,8H-pyrazolo[3,4-b]indole-5-carboxamide] gave an IC50 of 0.01 to 0.1 µM. For Cn1cc2c3cc(C(=O)NCCc4noc(C5CC5)n4)ccc3n(-c3ccc(C(F)(F)F)cc3)c2n1 [B125^], the IC50 was 0.1 to 10 µM. With CCn1cc(CCNC(=O)c2ccc3c(c2)c2cn(C)nc2n3-c2ccc(C(F)(F)F)cc2)nn1 [B105^] the IC50 was 0.1 to 10 µM. With Cc1nccc(C2(NC(=O)c3ccc4c(c3)c3cn(C)nc3n4-c3ccc(C(F)(F)F)cc3)CC2)n1 [Example B69, 2-methyl-N-[1-(2-methylpyrimidin-4-yl)cyclopropyl]-8-[4-(trifluoromethyl)phenyl]-2H,8H-pyrazolo[3,4-b]indole-5-carboxamide] the IC50 was > 10 µM. In the case of Cn1cc2c(n1)c1cc(C(=O)O)ccc1n2-c1ccc(C(F)(F)F)cc1 [Example 4, 2-methyl-4-[4-(trifluoromethyl)phenyl]-2H,4H-pyrazolo[4,3-b]indole-7-carboxylic acid], the IC50 is reported as 0.1 to 10 µM. Work on Cn1cc2c3cc(C(=O)O)ccc3n(CC3CCCCC3)c2n1 [Example 11, 8-(cyclohexylmethyl)-2-methyl-2H,8H-pyrazolo[3,4-b]indole-5-carboxylic acid] yielded an IC50 of 0.1 to 10 µM. In the case of Cn1cc2c3cc(C(=O)N4CC(O)C5(CCOCC5)C4)ccc3n(-c3ccc(C(F)(F)F)cc3)c2n1 (stereo not shown) [Example B56, 2-(2-methyl-8-[4-(trifluoromethyl)phenyl]-2H,8H-pyrazolo[3,4-b]indole-5-carbonyl}-8-oxa-2-azaspiro[4.5]decan-4-ol], the IC50 is reported as > 10 µM.

Source: US20230174538A1, “Tricyclic heterocycles” (Merck Patent GmbH, priority 2020, published 2023)
